Drawing on patent US11578069B2, “Compounds for inhibition of α4 β7 integrin” (Gilead Sciences, Inc., priority 2019, dated 2023), this text covers EC50 for three compounds.

Test [1] addresses T1, α4β7 integrin (Homo sapiens, UniProt P13612+P26010).
T1 construct: monitoring the capture of α4β7 integrin expressing cells; endogenous in cells; host or cells: RPMI8866
T1 sequence (P13612 34-1032): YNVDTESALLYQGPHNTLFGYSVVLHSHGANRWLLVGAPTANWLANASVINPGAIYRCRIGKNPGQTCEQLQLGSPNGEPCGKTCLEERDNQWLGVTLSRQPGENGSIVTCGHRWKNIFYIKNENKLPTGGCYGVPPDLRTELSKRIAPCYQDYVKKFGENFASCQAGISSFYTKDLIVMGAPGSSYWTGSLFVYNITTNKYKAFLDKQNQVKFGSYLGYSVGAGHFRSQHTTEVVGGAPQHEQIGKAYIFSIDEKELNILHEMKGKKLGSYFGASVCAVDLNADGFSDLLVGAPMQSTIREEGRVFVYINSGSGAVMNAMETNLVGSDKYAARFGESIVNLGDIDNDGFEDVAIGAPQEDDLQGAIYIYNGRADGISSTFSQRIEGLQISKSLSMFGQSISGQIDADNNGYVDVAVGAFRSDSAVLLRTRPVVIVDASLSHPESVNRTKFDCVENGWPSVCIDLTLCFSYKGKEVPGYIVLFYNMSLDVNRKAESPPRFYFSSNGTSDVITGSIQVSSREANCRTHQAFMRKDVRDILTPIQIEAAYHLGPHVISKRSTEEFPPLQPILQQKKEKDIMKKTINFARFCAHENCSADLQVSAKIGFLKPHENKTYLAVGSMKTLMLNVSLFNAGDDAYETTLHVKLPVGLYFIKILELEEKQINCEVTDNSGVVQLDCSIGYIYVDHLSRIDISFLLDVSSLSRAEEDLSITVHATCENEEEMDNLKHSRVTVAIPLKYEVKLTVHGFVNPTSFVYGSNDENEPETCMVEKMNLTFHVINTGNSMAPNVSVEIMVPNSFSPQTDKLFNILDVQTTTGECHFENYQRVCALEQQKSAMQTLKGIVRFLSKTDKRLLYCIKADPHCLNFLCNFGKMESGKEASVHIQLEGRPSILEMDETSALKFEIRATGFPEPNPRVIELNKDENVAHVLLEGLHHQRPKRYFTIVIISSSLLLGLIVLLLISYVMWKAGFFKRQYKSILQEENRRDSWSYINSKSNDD
T1 sequence (P26010 20-798): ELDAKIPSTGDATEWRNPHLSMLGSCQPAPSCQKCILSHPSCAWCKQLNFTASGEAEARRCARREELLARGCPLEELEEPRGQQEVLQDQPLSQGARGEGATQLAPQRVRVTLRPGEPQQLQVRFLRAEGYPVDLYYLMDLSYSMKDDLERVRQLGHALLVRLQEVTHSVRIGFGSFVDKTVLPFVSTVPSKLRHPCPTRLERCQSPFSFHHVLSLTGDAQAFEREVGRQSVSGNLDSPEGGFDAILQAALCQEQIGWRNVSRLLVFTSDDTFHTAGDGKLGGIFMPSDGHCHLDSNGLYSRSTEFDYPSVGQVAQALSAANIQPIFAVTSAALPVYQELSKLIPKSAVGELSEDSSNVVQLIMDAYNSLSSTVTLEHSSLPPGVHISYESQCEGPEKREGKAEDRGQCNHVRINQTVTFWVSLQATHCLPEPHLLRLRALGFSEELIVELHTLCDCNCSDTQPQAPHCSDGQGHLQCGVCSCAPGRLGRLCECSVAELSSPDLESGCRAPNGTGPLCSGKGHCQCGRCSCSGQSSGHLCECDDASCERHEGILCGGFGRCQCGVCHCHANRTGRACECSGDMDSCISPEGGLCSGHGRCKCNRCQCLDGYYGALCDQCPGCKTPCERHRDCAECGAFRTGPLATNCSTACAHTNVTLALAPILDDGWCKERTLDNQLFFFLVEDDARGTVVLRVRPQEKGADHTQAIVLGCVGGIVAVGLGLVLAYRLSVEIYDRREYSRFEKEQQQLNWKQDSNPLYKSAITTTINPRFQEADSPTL
Put plainly: α4β7 Integrin Cell Capture Assay. The settings on record: capture of α4β7 integrin expressing RPM18866 cells on MadCAM-1 extracellular domain-coated plate. Format: cell-based. The procedure, abridged: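 RPM18866 cells were preincubated with compound for 1 h at 37 °C in DMEM with 0.5% FBS and 0.5 mM MnCl2. They were then allowed to adhere for 30 min at 37 °C to BSA-blocked plates coated with MAdCAM-1 extracellular domain (1.0 µg/mL). After glutaraldehyde/Hoechst fixation and washing, bound cells were counted by imaging, and EC50 was fitted from counts versus concentration.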

The target in test [2] is T2, α4β1 integrin (Homo sapiens, UniProt P05556+P13612).
T2 construct: monitoring the capture of α4β1 expressing cells; endogenous in cells; host or cells: Jurkat
T2 sequence (P05556 21-798, one chain of several): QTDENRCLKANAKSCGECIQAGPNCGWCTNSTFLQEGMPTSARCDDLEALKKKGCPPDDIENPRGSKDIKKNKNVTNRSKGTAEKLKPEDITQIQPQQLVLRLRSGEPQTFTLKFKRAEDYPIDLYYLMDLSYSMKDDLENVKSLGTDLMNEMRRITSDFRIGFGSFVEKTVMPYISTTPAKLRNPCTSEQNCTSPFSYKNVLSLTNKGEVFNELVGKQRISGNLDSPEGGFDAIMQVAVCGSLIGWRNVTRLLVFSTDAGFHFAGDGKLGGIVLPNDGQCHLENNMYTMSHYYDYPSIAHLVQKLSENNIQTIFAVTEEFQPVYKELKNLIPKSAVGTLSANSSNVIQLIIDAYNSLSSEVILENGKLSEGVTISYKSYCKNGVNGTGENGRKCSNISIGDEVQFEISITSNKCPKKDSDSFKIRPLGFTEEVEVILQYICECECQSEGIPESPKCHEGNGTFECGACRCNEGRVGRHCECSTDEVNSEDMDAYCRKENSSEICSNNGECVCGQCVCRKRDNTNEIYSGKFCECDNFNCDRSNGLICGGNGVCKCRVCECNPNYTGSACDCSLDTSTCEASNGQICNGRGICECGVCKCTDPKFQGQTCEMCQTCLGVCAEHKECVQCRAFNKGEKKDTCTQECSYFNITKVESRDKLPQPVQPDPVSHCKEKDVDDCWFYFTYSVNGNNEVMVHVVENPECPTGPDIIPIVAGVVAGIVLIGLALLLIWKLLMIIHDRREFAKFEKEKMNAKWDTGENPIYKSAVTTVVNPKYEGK
In words: α4β1 Cell Capture Assay. Format: cell-based. The settings on record: capture of α4β1 expressing Jurkat cells on VCAM-1 extracellular domain-coated plate. An outline of the steps: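 Jurkat cells in DMEM with 0.5% FBS and 0.5 mM MnCl2 preincubated 1 h at 37° C with compound, then allowed 30 min at 37° C to bind plates coated with recombinant VCAM-1 extracellular domain (0.5 μg/ml). After glutaraldehyde fixation and Hoechst staining, bound cells counted by imaging; EC50 from concentration–response.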

As to `CC[C@@H](Nc1cc(F)c(C(=O)N[C@@H](Cc2ccc(-c3c(C(F)(F)F)cc(C)n(C)c3=O)cc2)C(=O)O)c(F)c1)C(F)(F)F` [Example 1, (S)-2-(2,6-difluoro-4-(((R)-1,1,1-trifluorobutan-2-yl)amino)benzamido)-3-(4-(1,6-dimethyl-2-oxo-4-(trifluoromethyl)-1,2-dihydropyridin-3-yl)phenyl)propanoic acid], the EC50 in test [1] (Table 1) was found to be 1.4 nM; in test [2] (Table 1) it was 10.3 nM.
In the same order, the values of `Cc1cc(N2CCOC[C@@H]2C(F)(F)F)cc(F)c1C(=O)N[C@@H](Cc1ccc(-n2c(=O)c3ccncc3n(C)c2=O)cn1)C(=O)O` [Example 23, (S)-2-(2-fluoro-6-methyl-4-((R)-3-(trifluoromethyl)morpholino)benzamido)-3-(5-(1-methyl-2,4-dioxo-1,4-dihydropyrido[3,4-d]pyrimidin-3(2H)-yl)pyridin-2-yl)propanoic acid] are 0.2 nM and 9.8 nM.
As to `COc1cc(C[C@H](NC(=O)c2c(F)cc(N3CCOC[C@@H]3C(F)(F)F)cc2F)C(=O)O)ccc1-n1c(=O)c2ccncc2n(C)c1=O` [Example 53], the EC50 was 0.2 nM in test [1] (Table 2) and 18.6 nM in test [2] (Table 2).
